Measured values taken from ChEMBL document CHEMBL4184250, “Structure-activity studies of a macrocyclic peptide inhibitor of histone lysine demethylase 4A” (Bioorg Med Chem, 2018).
Where a SMILES comes first, the peptide text is derived from it. Bridges are numbered along the chain shown (N, C = ends). [ ]: non-standard residue; d: D form. NMeI = CC[C@H](C)[C@H](NC)C(=O)O; NMeC = CN[C@@H](CS)C(=O)O

Experiments:
[1] = Drug uptake in human MCF7 cells assessed as cell area stained at 10 uM after 3 hrs by Hoechst 33342 staining based confocal microscopic analysis; assay type: ADME; details: mcf7, 3 h
[2] = molecular target: T1, Lysine-specific demethylase 4C (Homo sapiens, UniProt Q9H3R0); assay: Inhibition of KDM4C (unknown origin) expressed in Escherichia coli using biotinylated peptide as substrate pretreated for 15 mins followed by substrate addition by Alphascreen assay
T1 sequence (Q9H3R0 whole entry): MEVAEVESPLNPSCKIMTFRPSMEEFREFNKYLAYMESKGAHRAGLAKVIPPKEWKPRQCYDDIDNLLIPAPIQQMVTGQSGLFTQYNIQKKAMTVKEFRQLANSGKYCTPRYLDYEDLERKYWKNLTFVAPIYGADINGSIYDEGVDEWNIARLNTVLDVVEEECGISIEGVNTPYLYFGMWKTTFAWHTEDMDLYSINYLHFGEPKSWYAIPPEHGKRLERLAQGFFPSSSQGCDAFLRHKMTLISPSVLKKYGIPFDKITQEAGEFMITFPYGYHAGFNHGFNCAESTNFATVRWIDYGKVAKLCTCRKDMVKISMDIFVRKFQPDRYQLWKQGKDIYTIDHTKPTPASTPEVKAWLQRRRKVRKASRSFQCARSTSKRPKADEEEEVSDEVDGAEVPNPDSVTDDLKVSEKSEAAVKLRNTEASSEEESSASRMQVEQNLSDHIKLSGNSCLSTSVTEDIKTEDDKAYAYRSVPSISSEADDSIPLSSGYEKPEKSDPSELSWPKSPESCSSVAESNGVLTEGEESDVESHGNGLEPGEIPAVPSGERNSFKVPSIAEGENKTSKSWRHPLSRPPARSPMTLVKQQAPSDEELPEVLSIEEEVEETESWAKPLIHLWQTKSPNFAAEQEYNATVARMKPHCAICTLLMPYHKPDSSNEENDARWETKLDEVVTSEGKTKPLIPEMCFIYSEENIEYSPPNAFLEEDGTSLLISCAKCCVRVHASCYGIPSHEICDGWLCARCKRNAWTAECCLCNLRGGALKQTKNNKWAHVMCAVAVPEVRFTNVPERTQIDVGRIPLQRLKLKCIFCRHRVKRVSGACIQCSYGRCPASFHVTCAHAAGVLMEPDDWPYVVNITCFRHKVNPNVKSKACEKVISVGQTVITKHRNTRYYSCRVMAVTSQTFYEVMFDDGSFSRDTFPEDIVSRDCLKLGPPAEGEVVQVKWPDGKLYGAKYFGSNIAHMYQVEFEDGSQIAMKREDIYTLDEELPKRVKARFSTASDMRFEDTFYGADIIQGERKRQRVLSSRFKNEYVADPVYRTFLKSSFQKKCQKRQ

[3] = molecular target: T2, Lysine-specific demethylase 4A (Homo sapiens, UniProt O75164); assay: Inhibition of KDM4A (unknown origin) expressed in Escherichia coli using biotinylated peptide as substrate pretreated for 15 mins followed by substrate addition by Alphascreen assay
T2 sequence (O75164 whole entry): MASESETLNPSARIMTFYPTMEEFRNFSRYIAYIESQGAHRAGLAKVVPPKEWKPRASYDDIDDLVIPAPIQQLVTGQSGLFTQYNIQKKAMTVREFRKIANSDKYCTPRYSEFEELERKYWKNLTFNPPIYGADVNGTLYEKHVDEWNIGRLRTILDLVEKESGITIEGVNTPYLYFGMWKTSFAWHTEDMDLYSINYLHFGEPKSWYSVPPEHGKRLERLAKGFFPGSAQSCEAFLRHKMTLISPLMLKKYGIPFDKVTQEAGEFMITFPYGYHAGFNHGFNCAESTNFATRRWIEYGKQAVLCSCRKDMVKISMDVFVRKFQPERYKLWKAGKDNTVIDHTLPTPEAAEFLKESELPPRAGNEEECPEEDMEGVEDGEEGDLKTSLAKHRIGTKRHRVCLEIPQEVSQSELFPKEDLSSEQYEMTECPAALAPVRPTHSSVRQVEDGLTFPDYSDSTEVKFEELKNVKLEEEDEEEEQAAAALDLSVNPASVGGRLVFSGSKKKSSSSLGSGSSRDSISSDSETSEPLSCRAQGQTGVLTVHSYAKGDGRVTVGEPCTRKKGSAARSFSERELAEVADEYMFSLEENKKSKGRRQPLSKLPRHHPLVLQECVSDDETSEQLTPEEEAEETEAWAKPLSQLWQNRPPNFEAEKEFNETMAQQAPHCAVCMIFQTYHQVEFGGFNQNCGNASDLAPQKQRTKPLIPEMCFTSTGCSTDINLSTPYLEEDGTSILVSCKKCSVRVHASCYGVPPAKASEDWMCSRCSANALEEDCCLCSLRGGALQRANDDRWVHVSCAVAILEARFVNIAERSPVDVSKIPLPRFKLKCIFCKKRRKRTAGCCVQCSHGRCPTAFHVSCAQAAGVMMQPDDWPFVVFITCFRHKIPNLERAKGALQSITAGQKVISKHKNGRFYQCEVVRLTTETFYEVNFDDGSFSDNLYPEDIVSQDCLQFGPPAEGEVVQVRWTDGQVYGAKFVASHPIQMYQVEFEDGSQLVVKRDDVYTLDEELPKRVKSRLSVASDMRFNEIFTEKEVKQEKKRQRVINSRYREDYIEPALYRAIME

[4] = molecular target: T2, Lysine-specific demethylase 4A; assay: Inhibition of full length FLAG-tagged KDM4A (unknown origin) expressed in human HeLa cells assessed as increase in H3K9me3 levels after 24 hrs by DAPI staining based immunofluorescence assay; assay type: cell-based
[5] = molecular target: T2, Lysine-specific demethylase 4A; assay: Binding affinity to biotinylated-KDM4A (unknown origin) at 300 nM by bio-layer interferometric method; details: read-out: Kd(app)
[6] = Drug localization in lysosomes of human MCF7 cells at 10 uM after 3 hrs by Lysotracker red DND-99 staining based confocal microscopic analysis; assay type: ADME, subcellular, Lysosome; details: mcf7, 3 h

Row | Compound | Drug uptake [1] | IC50 [2] | IC50 [3] | EC50 [4] | Kd [5] | EC50 ([4]; hela) | Drug uptake [6]
1 | CC[C@H](C)[C@@H]1NC(=O)CNC(=O)[C@H](CO)NC(=O)[C@H](CCCNC(=N)N)NC(=O)[C@H](CCCNC(=N)N)NC(=O)[C@H]([C@@H](C)CC)NC(=O)[C@H](CCCNC(=N)N)NC(=O)[C@@H]2CCCN2C(=O)[C@H](Cc2ccc(O)cc2)NC(=O)CSC[C@@H](C(N)=O)N(C)C(=O)[C@H](Cc2c[nH]c3ccccc23)NC(=O)[C@H](CCCNC(=N)N)NC1=O ({CH2CO}-YPRIRRSGIRW[NMeC]-NH2; thioether N-12) | 28.2% | 164 nM | 373 nM | > 50000 nM | 9 nM | – | –
2 | CC[C@H](C)[C@@H]1NC(=O)[C@H](CCCNC(=N)N)NC(=O)[C@@H]2CCCN2C(=O)[C@@H](Cc2ccc(O)cc2)NC(=O)CSC[C@@H](C(N)=O)NC(=O)[C@H](Cc2c[nH]c3ccccc23)NC(=O)[C@H](CCCNC(=N)N)NC(=O)[C@H]([C@@H](C)CC)NC(=O)[C@@H](C)NC(=O)[C@H](CO)NC(=O)[C@H](CCCNC(=N)N)NC(=O)[C@H](CCCNC(=N)N)NC1=O | 97.1% | 173 nM | 208 nM | – | 14 nM | > 50000 nM | –
3 | CC[C@H](C)[C@@H]1NC(=O)[C@H](CCCNC(=N)N)NC(=O)[C@H]([C@@H](C)CC)NC(=O)[C@H](Cc2ccc(O)cc2)NC(=O)CSC[C@@H](C(N)=O)NC(=O)[C@H](Cc2c[nH]c3ccccc23)NC(=O)[C@H](C(C)C)NC(=O)[C@H](Cc2c[nH]c3ccccc23)NC(=O)CNC(=O)[C@H](CO)NC(=O)[C@H](CCCNC(=N)N)NC(=O)[C@H](CO)NC1=O ({CH2CO}-YIRISRSGWVWC-NH2; thioether N-12) | 12.1% | 23 nM | 31 nM | – | 16 nM | – | –
4 | CC[C@H](C)[C@@H]1NC(=O)[C@H](Cc2c[nH]c3ccccc23)NC(=O)CNC(=O)[C@H](CO)NC(=O)[C@H](CCCNC(=N)N)NC(=O)[C@H](C(C)C)NC(=O)[C@H](C(C)C)NC(=O)[C@H](CCCNC(=N)N)NC(=O)[C@H]([C@@H](C)CC)NC(=O)[C@@H](Cc2ccc(O)cc2)NC(=O)CSC[C@@H](C(N)=O)NC(=O)[C@H](Cc2c[nH]c3ccccc23)NC1=O | 2.9% | 22 nM | 43 nM | – | 3.7 nM | – | –
5 | CC[C@H](C)[C@@H]1NC(=O)[C@H](CC(C)C)NC(=O)[C@H](Cc2ccc(O)cc2)NC(=O)CSC[C@@H](C(N)=O)NC(=O)[C@H](Cc2c[nH]c3ccccc23)NC(=O)[C@H](C(C)C)NC(=O)[C@H](CC(C)C)NC(=O)CNC(=O)[C@H](CO)NC(=O)[C@H](CCCNC(=N)N)NC(=O)[C@H](CCCNC(=N)N)NC(=O)[C@H](C(C)C)NC1=O ({CH2CO}-YLIVRRSGLVWC-NH2; thioether N-12) | 3.4% | 151 nM | 81 nM | – | 173 nM | – | –
6 | CC[C@H](C)[C@@H]1NC(=O)[C@H](Cc2c[nH]c3ccccc23)NC(=O)CNC(=O)[C@H](CO)NC(=O)[C@H](CCCNC(=N)N)NC(=O)[C@H](CCCCN)NC(=O)[C@H]([C@@H](C)CC)NC(=O)[C@H](CO)NC(=O)[C@@H]2CCCN2C(=O)[C@H](Cc2ccc(O)cc2)NC(=O)CSC[C@@H](C(N)=O)NC(=O)[C@H](Cc2c[nH]c3ccccc23)NC1=O ({CH2CO}-YPSIKRSGWIWC-NH2; thioether N-12) | 0.8% | 55 nM | 41 nM | – | 21 nM | – | –
7 | CC[C@H](C)[C@@H]1NC(=O)[C@H](CCCNC(=N)N)NC(=O)[C@H]([C@@H](C)CC)NC(=O)[C@H](Cc2ccc(O)cc2)NC(=O)CSC[C@@H](C(N)=O)N(C)C(=O)[C@H](Cc2c[nH]c3ccccc23)NC(=O)[C@H](CC(C)C)NC(=O)[C@H](Cc2c[nH]c3ccccc23)NC(=O)CNC(=O)[C@H](CO)NC(=O)[C@H](CCCNC(=N)N)NC(=O)[C@H](CCCNC(=N)N)NC1=O ({CH2CO}-YIRIRRSGWLW[NMeC]-NH2; thioether N-12) | 18% | 53 nM | 34 nM | > 50000 nM | 8.3 nM | – | –
8 | N=C(N)NCCC[C@@H]1NC(=O)CNC(=O)[C@H](Cc2ccc(O)cc2)NC(=O)CSC[C@@H](C(N)=O)NC(=O)[C@H](CCCNC(=N)N)NC(=O)[C@H](CCCNC(=N)N)NC(=O)[C@H](CCCNC(=N)N)NC(=O)[C@H](CCC(N)=O)NC(=O)[C@H](CCCNC(=N)N)NC(=O)[C@H](CCCCN)NC(=O)[C@H](CCCCN)NC(=O)[C@H](CCCCN)NC1=O ({CH2CO}-YGRKKKRQRRRC-NH2; thioether N-12) | Active | – | – | – | – | – | Active
9 | CC[C@H](C)[C@@H]1NC(=O)[C@H](CCCNC(=N)N)NC(=O)[C@H]([C@@H](C)CC)NC(=O)[C@@H](Cc2ccc(O)cc2)NC(=O)CSC[C@@H](C(N)=O)NC(=O)[C@H](Cc2c[nH]c3ccccc23)NC(=O)[C@H](CC(C)C)NC(=O)[C@H](Cc2c[nH]c3ccccc23)NC(=O)[C@@H](C)NC(=O)[C@H](CO)NC(=O)[C@H](CCCNC(=N)N)NC(=O)[C@H](CCCNC(=N)N)NC1=O | 92.7% | 38 nM | 15 nM | – | 3.1 nM | > 50000 nM | –
10 | CC[C@H](C)[C@@H]1NC(=O)[C@H](CC(C)C)NC(=O)CNC(=O)[C@H](CO)NC(=O)[C@H](CCCNC(=N)N)NC(=O)[C@H](C(C)C)NC(=O)[C@H](C(C)C)NC(=O)[C@H](CCCCN)NC(=O)[C@@H]2CCCN2C(=O)[C@H](Cc2ccc(O)cc2)NC(=O)CSC[C@@H](C(N)=O)NC(=O)[C@H](Cc2c[nH]c3ccccc23)NC1=O ({CH2CO}-YPKVVRSGLIWC-NH2; thioether N-12) | 1.7% | 154 nM | 82 nM | – | 49 nM | – | –
11 | CC[C@H](C)[C@@H]1NC(=O)[C@H](CCCNC(=N)N)NC(=O)[C@H]([C@@H](C)CC)N(C)C(=O)[C@H](Cc2ccc(O)cc2)NC(=O)CSC[C@@H](C(N)=O)NC(=O)[C@H](Cc2c[nH]c3ccccc23)NC(=O)[C@H](CC(C)C)NC(=O)[C@H](Cc2c[nH]c3ccccc23)NC(=O)CNC(=O)[C@H](CO)NC(=O)[C@H](CCCNC(=N)N)NC(=O)[C@H](CCCNC(=N)N)NC1=O ({CH2CO}-Y[NMeI]RIRRSGWLWC-NH2; thioether N-12) | 55.6% | 12 nM | 11 nM | > 50000 nM | 14 nM | – | –
